From patent publication US4413006A, “N-Aryl-N-phenoxy-alkyl-piperazine compounds useful in decreasing intracranial pressure” (Tanabe Seiyaku Co., Ltd., priority 1980, dated 1983)
Read-outs that look alike come from different tables or passages of the source.

Tests used:
[1] = system: intracranial pressure (cerebrospinal fluid pressure in the cisterna magna); assay: Effect of i.v. injection of test compounds on intracranial pressure in rats (Experiment 1); format: in vivo, Male SD-rats; conditions: for Change in intracranial pressure (%), time after administration of test compound 40 minutes / Change in intracranial pressure (%), time after administration of test compound 60 minutes / Change in intracranial pressure (%), time after administration of test compound 120 minutes / Change in intracranial pressure (%), time after administration of test compound 180 minutes: i.v. infusion 0.2 ml/kg/minute for 20 minutes; for Change in intracranial pressure (%), time after administration of test compound 40 minutes: baseline 100, control 106.4; for Change in intracranial pressure (%), time after administration of test compound 60 minutes: baseline 100, control 107.5; for Change in intracranial pressure (%), time after administration of test compound 120 minutes: baseline 100, control 114.4; for Change in intracranial pressure (%), time after administration of test compound 180 minutes: baseline 100, control 110.7
Method: (Effect of i.v. injection of test compounds on intracranial pressure in rats) Male SD-rats weighing 500 to 800 g (each group consisting of 5 rats) were anesthetized with urethane. A solution of a test compound in an aqueous 5 w/v % mannitol solution was infused via the femoral vein at a rate of 0.2 ml/kg/minute for 20 minutes (when the test compound was used in the form of free base, said solution was prepared by dissolving it in an aqueous 5 w/v % mannitol solution with the aid of 0.5 N hydrochloric acid). Intracranial pressure (i.e., cerebrospinal fluid pressure in the cisterna magna) was continuously monitored via a cannula inserted in the cisterna magna. The cannula was connected to a transducer, and recording were made on graph paper. The effect of the test compound on the intracranial pressure was estimated in terms of the increase or decrease in intracranial pressure, which was calculated in accordance with the following formula: [formula]

[2] = Maximum tolerance dose in mice (Experiment 3); set-up: species or system male mice; conditions: mouse, in vivo, ip
Method: As a result, the maximum tolerance doses of 1-[3-(4-acetamido-2-methoxyphenoxy)-n-propyl]-4-(3-fluorophenyl)-piperazine, 1-[3-(4-acetamido-2-methoxyphenoxy)-n-propyl]-4-(2-fluorophenyl)-piperazine and 1-[3-(4-ethoxycarbonylamino-2-methoxyphenoxy)-n-propyl]-4-phenyl-piperazine methanesulfonate were more than 300 mg/kg.

[3] = system: spontaneous motor activity / central nervous system; assay: Inhibitory effect on spontaneous motor activity in mice (Experiment 2 (1)); format: in vivo, male mice; conditions: Mus musculus, ip, 0.5 h, i.p., 30 minutes after administration, dose decreasing motor activity by 50%
Method: (§1) (Inhibitory effect of test compound on central nervous system in mice)
(§2) Inhibitory effect of test compound on central nervous system was examined by the following methods.
A solution or suspension of a test compound in water or an aqueous carboxymethylcellulose solution was administered intraperitoneally to male mice weighing 18 to 20 g (each group consisting of 5 mice). Thirty minutes after administration of the test compound, the spontaneous motor activity of the mice was measured with an animex activity meter for 5 minutes. The 50% effective dose (ED50) of the test compound was estimated in terms of dose which is necessary to decrease the motor activity of the medicated mice by 50% of that of a control group (i.e., non-medicated mice).

[4] = system: apomorphine-induced cage climbing; assay: Anti-apomorphine activity in mice (Experiment 2 (3)); format: in vivo, male mice; conditions: Mus musculus, ip, apomorphine hydrochloride 2.5 mg/kg s.c., dose decreasing climbing mice by 50%
Method: as §1, §2
A solution or suspension of a test compound in water or an aqueous carboxymethylcellulose solution was administered intraperitoneally to male mice weighing 18 to 20 g (each group consisting of 5 mice). Thirty minutes after administration of the test compound, apomorphine hydrochloride (2.5 mg/kg) was administered subcutaneously to the mice, and the number of the mice which could climb a cage was examined. The 50% effective dose (ED50) of the test compound was estimated in terms of dose which is necessary to decrease the number of the medicated mice which could climb the cage by 50% of the number of a control group (i.e., non-medicated mice) which could climb the cage.

[5] = system: sodium hexobarbital-induced anesthesia; assay: Effect on sodium hexobarbital-induced anesthesia in mice (Experiment 2 (2)); format: in vivo, male mice; conditions: Mus musculus, ip, sodium hexobarbital 100 mg/kg i.p., dose prolonging sleeping time to twice control
Method: as §1, §2
A solution or suspension of a test compound in water or an aqueous carboxymethylcellulose solution was administered intraperitoneally to male mice weighing 18 to 20 g (each group consisting of 5 mice). Thirty minutes after intraperitoneal administration of the test compound, sodium hexobarbital (100 mg/kg) was administered intraperitoneally to the mice, and the sleeping time between the loss and recovery of righting reflex was measured. The 50% effective dose (ED50) of the test compound was estimated in terms of dose which is necessary to prolong the sleeping time of the medicated mice twice as long as that of a control group (i.e., non-medicated mice).

| Compound | Change in intracranial pressure (%), time after administration of test compound 40 minutes [1] | Change in intracranial pressure (%), time after administration of test compound 60 minutes [1] | Change in intracranial pressure (%), time after administration of test compound 120 minutes [1] | Change in intracranial pressure (%), time after administration of test compound 180 minutes [1] | other results |
| --- | --- | --- | --- | --- | --- |
| COc1cc(NC(C)=O)ccc1OCCCCN1CCN(c2ccccc2F)CC1 [NO. 3 (Table 1)] | 86.6% | 91.9% | 85.7% | 84.6% |  |
| COc1cc(NC(C)=O)ccc1OCCCN1CCN(c2ccccc2F)CC1 [Example 7, 1-[3-(4-acetamido-2-methoxyphenoxy)-n-propyl]-4-(2-fluorophenyl)-piperazine] |  |  |  |  | MTD at 72 h [2]: > 300 mg/kg |
| COc1cc(NC=O)ccc1OCCCN1CCN(c2ccccc2)CC1 [NO. 7 (Table 1), 1-[3-(4-formylamino-2-methoxphenoxy)-n-propyl]-4-phenyl-piperazine] | 84.1% | 83.5% | 83.5% | 81.9% |  |
| COc1cc(N)ccc1OCCCN1CCN(c2ccccc2)CC1 [NO. 5 (Table 2), 1-[3-(4-amino-2-methoxyphenoxy)-n-propyl]-4-phenyl-piperazine] |  |  |  |  | ED50 [3]: 0.7 mg/kg |
| COc1cc(NC(C)=O)ccc1OCCCN1CCN(c2ccccc2F)CC1 [NO. 4 (Table 2)] |  |  |  |  | ED50 [3]: 0.5 mg/kg |
| COc1cc(NC(C)=O)ccc1OCCCN1CCN(c2ccccc2F)CC1 [NO. 2 (Table 4)] |  |  |  |  | ED50 [4]: 2.8 mg/kg |
| COc1cc(NC(=O)C2CC2)ccc1OCCCN1CCN(c2ccccc2)CC1 [NO. 10 (Table 1), 1-[3-(4-cyclopropylcarbonylamino-2-methoxyphenoxy)-n-propyl]-4-phenyl-piperazine] | 85.9% | 84.3% | 83.6% | 86.2% |  |
| COc1cc(NC(=O)C=C(C)C)ccc1OCCCN1CCN(c2ccccc2)CC1 [NO. 12 (Table 1), 1-{3-[4-((2-methyl-1-propenyl)carbonylamino)-2-methoxyphenoxy]-n-propyl}-4-phenylpiperazine] | 76.7% | 84.3% | 91.9% | 93.5% |  |
| COc1cc(N)ccc1OCCCN1CCN(c2ccccc2)CC1 [NO. 5 (Table 1)] | 79.1% | 77.0% | 75.0% | 75.6% |  |
| COc1cc(NC(C)C(=O)O)ccc1OCCCN1CCN(c2ccccc2)CC1.Cl (stereo not drawn) [NO. 6 (Table 1), 1-{3-[4-(1-carboxyethylamino)-2-methoxyphenoxy]-n-propyl}-4-phenylpiperazine hydrochloride] | 81.5% | 86.2% | 96.2% | 99.0% |  |
| COc1cc(NC(C)=O)ccc1OCCCN1CCN(c2cccc(F)c2)CC1 [Example 5, 1-[3-(4-acetamido-2-methoxyphenoxy)-n-propyl]-4-(3-fluorophenyl)-piperazine] |  |  |  |  | MTD at 72 h [2]: > 300 mg/kg; decrease in the intracranial pressure ([1]; femoral vein infusion, dose 1 mg/kg, 40 minutes after administration): about 27% |
| CCOC(=O)Nc1ccc(OCCCN2CCN(c3ccccc3)CC2)c(OC)c1 [NO. 3 (Table 4)] |  |  |  |  | ED50 [4]: 3 mg/kg |
| COc1cc(NC(=O)C2CCCCC2)ccc1OCCCN1CCN(c2ccccc2)CC1 [NO. 11 (Table 1), 1-[3-(4-cyclohexylcarbonylamino-2-methoxyphenoxy)-n-propyl]-4-phenyl-piperazine] | 91.1% | 94.3% | 78.7% | 78.8% |  |
| CCNc1ccc(OCCCN2CCN(c3ccccc3)CC2)c(OC)c1.Cl [NO. 4 (Table 1), 1-[3-(4-ethylamino-2-methoxyphenoxy)-n-propyl]-4-phenyl-piperazine hydrochloride] | 83.9% | 81.1% | 86.8% | 91.3% |  |
| COc1cc(NC(=O)C(C)C)ccc1OCCCN1CCN(c2ccccc2)CC1 [NO. 8 (Table 1), 1-[3-(4-isobutyrylamino-2-methoxyphenoxy)-n-propyl]-4-phenyl-piperazine] | 83.3% | 85.4% | 85.1% | 87.1% |  |
| CCOC(=O)Nc1ccc(OCCCN2CCN(c3ccccc3)CC2)c(OC)c1.CS(=O)(=O)O [Example 21 methanesulfonate, 1-[3-(4-ethoxycarbonylamino-2-methoxyphenoxy)-n-propyl]-4-phenyl-piperazine methanesulfonate] | 79.7% | 79.3% | 79.2% | 82.2% | MTD at 72 h ([2]; mice, i.p., observed for 72 hours, read-out: maximum tolerance dose): > 300 mg/kg |
| COc1cc(NC(=O)OC(C)(C)C)ccc1OCCCN1CCN(c2ccccc2)CC1 [NO. 14 (Table 1), 1-[3-(4-t-butoxycarbonylamino-2-methoxyphenoxy)-n-propyl]-4-phenyl-piperazine] | 78.9% | 77.7% | 80.3% | 81.6% |  |
| COc1cc(NC(=O)C(C)(C)C)ccc1OCCCN1CCN(c2ccccc2)CC1 [NO. 9 (Table 1), 1-[3-(4-t-butylcarbonylamino-2-methoxyphenoxy)-n-propyl]-4-phenyl-piperazine] | 84.1% | 84.9% | 84.9% | 87.4% |  |
| COc1cc(NC(C)=O)ccc1OCCCN1CCN(c2ccccc2F)CC1 [NO. 3 (Table 3)] |  |  |  |  | ED50 [5]: 1.3 mg/kg |
